Source: patent publication US11285127B2, “Compositions and methods for lowering triglycerides without raising LDL-C levels in a subject on concomitant statin therapy” (Amarin Pharmaceuticals Ireland Limited, priority 2013, dated 2022)

Experiments:
[1] = tested on: patients with fasting triglyceride levels >200 mg/dl and <500 mg/dl despite statin therapy; assay: 12-week study: lipoprotein associated phospholipase A2 (Lp-PLA2); assay type: in vivo, human; conditions: MITT; for Lp-PLA2 Percent change from Baseline Median (IQR): Week 12 endpoint; for Lp-PLA2 Difference from placebo Estimated median: percent change from baseline to Week 12 endpoint
Source text: (§1) Parameters (a)-(z) can be measured in accordance with any clinically acceptable methodology. For example, triglycerides, total cholesterol, HDL-C and fasting blood sugar can be sample from serum and analyzed using standard photometry techniques. VLDL-TG, LDL-C and VLDL-C can be calculated or determined using serum lipoprotein fractionation by preparative ultracentrifugation and subsequent quantitative analysis by refractometry or by analytic ultracentrifugal methodology. Apo A1, Apo B and hsCRP can be determined from serum using standard nephelometry techniques. Lipoprotein (a) can be determined from serum using standard turbidimetric immunoassay techniques. LDL particle number and particle size can be determined using nuclear magnetic resonance (NMR) spectrometry. Remnants lipoproteins and LDL-phospholipase A2 can be determined from EDTA plasma or serum and serum, respectively, using enzymatic immunoseparation techniques. Oxidized LDL, intercellular adhesion molecule-1 and interleukin-2 levels can be determined from serum using standard enzyme immunoassay techniques. These techniques are described in detail in standard textbooks, for example Tietz Fundamentals of Clinical Chemistry, 6th Ed. (Burtis, Ashwood and Borter Eds.), WB Saunders Company.
(§2) A multi-center, placebo-controlled, randomized, double-blind, 12-week study was performed to evaluate the efficacy and safety of >96% E-EPA in patients with fasting triglyceride levels >200 mg/dl and <500 mg/dl despite statin therapy (the mean of two qualifying entry values needed to be >185 mg/dl and at least one of the values needed to be >200 mg/dl). The primary objective of the study was to determine the efficacy of >96% E-EPA 2 g daily and 4 g daily, compared to placebo, in lowering fasting TG levels in patients with high risk for cardiovascular disease and with fasting TG levels 200 mg/dl and <500 mg/dl, despite treatment to LDL-C goal on statin therapy.
(§3) The secondary objectives of this study were the following: • 1. To determine the safety and tolerability of >96% E-EPA 2 g daily and 4 g daily; • 2. To determine the effect of >96% E-EPA on lipid and apolipoprotein profiles including total cholesterol (TC), non-high-density lipoprotein cholesterol (non-HDL-C), low density lipoprotein cholesterol (LDL-C), high density lipoprotein cholesterol (HDL-C), and […]; • 3. To determine the effect of >96% E-EPA on lipoprotein associated phospholipase A2 (Lp-PLA2) from baseline to week 12; • 4. To determine the effect of >96% E-EPA on low-density lipoprotein (LDL) particle number and size; • 5. To determine the effect of >96% E-EPA on oxidized LDL; • 6. To determine the effect of >96% E-EPA on fasting plasma glucose (FPG) and hemoglobin A1c (HbA1c); • 7. To determine the effect of >96% E-EPA on insulin resistance; • 8. To determine the effect of >96% E-EPA on high-sensitivity C-reactive protein (hsCRP); • 9. To determine the effects of >96% E-EPA 2 g daily and 4 g daily on the incorporation of fatty acids into red blood cell membranes and into plasma phospholipids; • 10. To explore the relationship between baseline fasting TG levels and the reduction in fasting TG levels; and • 11. To explore the relationship between changes of fatty acid concentrations in plasma and red blood cell membranes, and the reduction in fasting TG levels.
(§4) The primary efficacy variable for the double-blind treatment period was percent change in TG from baseline to Week 12 endpoint. […]

[2] = tested on: patients with fasting triglyceride levels >200 mg/dl and <500 mg/dl despite statin therapy; assay: 12-week study: oxidized LDL; assay type: in vivo, human; conditions: MITT; for Oxidized LDL Percent change from Baseline Median (IQR): Week 12 endpoint; for Oxidized LDL Difference from placebo Estimated median: percent change from baseline to Week 12 endpoint
Source text: as §1, §2, §3, §4

## CC/C=C\C/C=C\C/C=C\C/C=C\C/C=C\CCCC(=O)OCC [AMR101, ethyl eicosapentaenoate]
[1]; AMR101 2 g/d + statin
  Lp-PLA2 Week 12 EP Median (IQR): 183.5 (57.5) ng/mL
  Lp-PLA2 Percent change from Baseline Median (IQR): −1.8 (23.1) %
  Lp-PLA2 Difference from placebo Estimated median: −8.0%
[1]; AMR101 4 g/d + statin
  Lp-PLA2 Week 12 EP Median (IQR): 160.0 (57.0) ng/mL
  Lp-PLA2 Percent change from Baseline Median (IQR): −12.8 (18.5) %
  Lp-PLA2 Difference from placebo Estimated median: −19.0%
[2]; AMR101 2 g/d + statin
  Oxidized LDL Week 12 EP Median (IQR): 55.8 (22.8) U/L
  Oxidized LDL Percent change from Baseline Median (IQR): 2.6 (18.3) %
  Oxidized LDL Difference from placebo Estimated median: −5.8%
[2]; AMR101 4 g/d + statin
  Oxidized LDL Week 12 EP Median (IQR): 51.4 (17.5) U/L
  Oxidized LDL Percent change from Baseline Median (IQR): −4.8 (19.6) %
  Oxidized LDL Difference from placebo Estimated median: −13.3%
